#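 96-well plates; 48 h exposure; 5 concentrations. Endpoints by linear interpolation between flanking doses. Not reached: highest tested concentration assigned. TGI is the concentration that stops growth completely.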
# System: MDA-N
# Assay: NCI-60 cell line screen, 48 h
row,Compound,TGI [µM]
1,COc1cc(OC)c2c(=O)c3cccc(C)c3n(C)c2c1,> 100
2,O=[N+]([O-])c1cccc2nccc(NCCN3CCOCC3)c12,61.4
3,O=C1NC(N/N=C\c2ccccc2)=N/C1=C/c1ccccc1,> 100
4,CCCCCCCCCCCCOCC1(COCCCCCCCCCCCC)COC(c2ccc(N)cc2)OC1,> 100
5,C[C@@H]1CC[C@@H]2[C@@H](C1)O[C@@H]([C@@H](C)OCc1ccccc1)SC2(C)C,36.3
6,Cc1sc2nc3n(c(=O)c2c1C)N=CN(c1ccc(Cl)cc1)C3,> 100
7,NC(=O)[N+](=CC(=S)Nc1ccccc1Cl)C(N)=O,> 100

# System: MDA-MB-435
# Assay: NCI-60 cell line screen, 48 h
row,Compound,TGI [µM]
1,O=[N+]([O-])c1ccc(-c2nn3c(C45CC6CC(CC(C6)C4)C5)nnc3s2)c(Cl)c1,> 100
2,CCCCCCCCCCCCCCCCNC(=O)/C(=C\c1ccc(Cl)c(Cl)c1)NC(=O)c1ccccc1,> 100
3,CC(Cn1c2c(c3cc(O)ccc31)CCc1ccc(O)cc1-2)N(C)C (stereo not drawn),41
4,O=C(Cn1c2ccc(Br)cc2c2nc3ccccc3nc21)Nc1ccccc1,> 100
5,COC(=O)/C=C/[C@@H]1[C@H](C)N1S(=O)(=O)c1ccc(C)cc1 (stereo partly drawn),> 100
6,Cc1nn(C(=O)c2ccncc2)c2c1C(c1ccccc1[N+](=O)[O-])SC(N)=N2 (stereo not drawn),> 10
7,CCOC(=O)C(=CNc1ccc(F)c(F)c1)C(=O)OCC,> 100
8,CN(N=O)c1nc2c(C(N)=O)ncn2s1,> 100
9,C1CCCN(NC2=NCCO2)CC1,> 100
10,CCOc1ccc(NC(=O)C(=O)Nn2c(N)nnc2N)cc1,> 100
11,Cc1[nH]c(-c2ccccc2)c2nc(N(C)C)oc(=O)c12,> 100
12,CC(C)(C)O/N=C/c1cc(NC(=S)c2ccsc2)ccc1Cl,38.5
13,Cc1ccc2nc(NS(=O)(=O)c3cc(C)c(Cl)cc3S)[nH]c2c1,> 100
14,CC(=O)N1C(Nc2nccs2)CCN1c1ccccc1 (stereo not drawn),> 10
15,COc1cc(OC)c2c(=O)c3cccc(C)c3n(C)c2c1,> 100
16,O=[N+]([O-])c1cccc2nccc(NCCN3CCOCC3)c12,81.8
17,O=C1NC(N/N=C\c2ccccc2)=N/C1=C/c1ccccc1,> 100
18,CCCCCCCCCCCCOCC1(COCCCCCCCCCCCC)COC(c2ccc(N)cc2)OC1,> 100
19,C[C@@H]1CC[C@@H]2[C@@H](C1)O[C@@H]([C@@H](C)OCc1ccccc1)SC2(C)C,35.8
20,Cc1sc2nc3n(c(=O)c2c1C)N=CN(c1ccc(Cl)cc1)C3,> 100
21,NC(=O)[N+](=CC(=S)Nc1ccccc1Cl)C(N)=O,> 100

# System: HL-60(TB) leukemia
# Assay: NCI-60 cell line screen, 48 h
row,Compound,TGI [µM]
1,O=[N+]([O-])c1ccc(-c2nn3c(C45CC6CC(CC(C6)C4)C5)nnc3s2)c(Cl)c1,> 100
2,CCCCCCCCCCCCCCCCNC(=O)/C(=C\c1ccc(Cl)c(Cl)c1)NC(=O)c1ccccc1,22
3,CC(Cn1c2c(c3cc(O)ccc31)CCc1ccc(O)cc1-2)N(C)C (stereo not drawn),> 100
4,COC(=O)/C=C/[C@@H]1[C@H](C)N1S(=O)(=O)c1ccc(C)cc1 (stereo partly drawn),> 100
5,Cc1nn(C(=O)c2ccncc2)c2c1C(c1ccccc1[N+](=O)[O-])SC(N)=N2 (stereo not drawn),> 10
6,CCOC(=O)C(=CNc1ccc(F)c(F)c1)C(=O)OCC,> 100
7,C1CCCN(NC2=NCCO2)CC1,> 100
8,CCOc1ccc(NC(=O)C(=O)Nn2c(N)nnc2N)cc1,> 100
9,Cc1[nH]c(-c2ccccc2)c2nc(N(C)C)oc(=O)c12,> 100
10,CC(C)(C)O/N=C/c1cc(NC(=S)c2ccsc2)ccc1Cl,39
11,Cc1ccc2nc(NS(=O)(=O)c3cc(C)c(Cl)cc3S)[nH]c2c1,72.7
12,CC(=O)N1C(Nc2nccs2)CCN1c1ccccc1 (stereo not drawn),> 10
13,COc1cc(OC)c2c(=O)c3cccc(C)c3n(C)c2c1,> 100
14,O=[N+]([O-])c1cccc2nccc(NCCN3CCOCC3)c12,> 34.6
15,O=C1NC(N/N=C\c2ccccc2)=N/C1=C/c1ccccc1,> 100
16,NC(=O)[N+](=CC(=S)Nc1ccccc1Cl)C(N)=O,> 100

# System: SNB-19 CNS
# Assay: NCI-60 cell line screen, 48 h
row,Compound,TGI [µM]
1,O=[N+]([O-])c1ccc(-c2nn3c(C45CC6CC(CC(C6)C4)C5)nnc3s2)c(Cl)c1,> 100
2,CCCCCCCCCCCCCCCCNC(=O)/C(=C\c1ccc(Cl)c(Cl)c1)NC(=O)c1ccccc1,> 100
3,CC(Cn1c2c(c3cc(O)ccc31)CCc1ccc(O)cc1-2)N(C)C (stereo not drawn),37.4
4,O=C(Cn1c2ccc(Br)cc2c2nc3ccccc3nc21)Nc1ccccc1,> 100
5,COC(=O)/C=C/[C@@H]1[C@H](C)N1S(=O)(=O)c1ccc(C)cc1 (stereo partly drawn),> 100
6,Cc1nn(C(=O)c2ccncc2)c2c1C(c1ccccc1[N+](=O)[O-])SC(N)=N2 (stereo not drawn),> 10
7,CCOC(=O)C(=CNc1ccc(F)c(F)c1)C(=O)OCC,> 100
8,CN(N=O)c1nc2c(C(N)=O)ncn2s1,> 100
9,C1CCCN(NC2=NCCO2)CC1,> 100
10,Cc1[nH]c(-c2ccccc2)c2nc(N(C)C)oc(=O)c12,> 100
11,Cc1ccc2nc(NS(=O)(=O)c3cc(C)c(Cl)cc3S)[nH]c2c1,> 100
12,CC(=O)N1C(Nc2nccs2)CCN1c1ccccc1 (stereo not drawn),> 10
13,COc1cc(OC)c2c(=O)c3cccc(C)c3n(C)c2c1,> 100
14,O=[N+]([O-])c1cccc2nccc(NCCN3CCOCC3)c12,> 100
15,O=C1NC(N/N=C\c2ccccc2)=N/C1=C/c1ccccc1,73.6
16,CCCCCCCCCCCCOCC1(COCCCCCCCCCCCC)COC(c2ccc(N)cc2)OC1,> 100
17,C[C@@H]1CC[C@@H]2[C@@H](C1)O[C@@H]([C@@H](C)OCc1ccccc1)SC2(C)C,33.6
18,Cc1sc2nc3n(c(=O)c2c1C)N=CN(c1ccc(Cl)cc1)C3,> 100
19,NC(=O)[N+](=CC(=S)Nc1ccccc1Cl)C(N)=O,> 100

# System: PC-3 prostate
# Assay: NCI-60 cell line screen, 48 h
row,Compound,TGI [µM]
1,O=[N+]([O-])c1ccc(-c2nn3c(C45CC6CC(CC(C6)C4)C5)nnc3s2)c(Cl)c1,> 100
2,CCCCCCCCCCCCCCCCNC(=O)/C(=C\c1ccc(Cl)c(Cl)c1)NC(=O)c1ccccc1,74.6
3,CC(Cn1c2c(c3cc(O)ccc31)CCc1ccc(O)cc1-2)N(C)C (stereo not drawn),27.6
4,O=C(Cn1c2ccc(Br)cc2c2nc3ccccc3nc21)Nc1ccccc1,46.5
5,COC(=O)/C=C/[C@@H]1[C@H](C)N1S(=O)(=O)c1ccc(C)cc1 (stereo partly drawn),> 100
6,Cc1nn(C(=O)c2ccncc2)c2c1C(c1ccccc1[N+](=O)[O-])SC(N)=N2 (stereo not drawn),> 10
7,CCOC(=O)C(=CNc1ccc(F)c(F)c1)C(=O)OCC,> 100
8,CN(N=O)c1nc2c(C(N)=O)ncn2s1,> 100
9,C1CCCN(NC2=NCCO2)CC1,> 100
10,CCOc1ccc(NC(=O)C(=O)Nn2c(N)nnc2N)cc1,> 100
11,Cc1[nH]c(-c2ccccc2)c2nc(N(C)C)oc(=O)c12,> 100
12,CC(C)(C)O/N=C/c1cc(NC(=S)c2ccsc2)ccc1Cl,26.1
13,Cc1ccc2nc(NS(=O)(=O)c3cc(C)c(Cl)cc3S)[nH]c2c1,> 100
14,CC(=O)N1C(Nc2nccs2)CCN1c1ccccc1 (stereo not drawn),> 10
15,COc1cc(OC)c2c(=O)c3cccc(C)c3n(C)c2c1,> 100
16,O=[N+]([O-])c1cccc2nccc(NCCN3CCOCC3)c12,39.1
17,O=C1NC(N/N=C\c2ccccc2)=N/C1=C/c1ccccc1,98.4
18,CCCCCCCCCCCCOCC1(COCCCCCCCCCCCC)COC(c2ccc(N)cc2)OC1,> 100
19,C[C@@H]1CC[C@@H]2[C@@H](C1)O[C@@H]([C@@H](C)OCc1ccccc1)SC2(C)C,45.4
20,Cc1sc2nc3n(c(=O)c2c1C)N=CN(c1ccc(Cl)cc1)C3,> 100
21,NC(=O)[N+](=CC(=S)Nc1ccccc1Cl)C(N)=O,> 100

# System: IGROV1 ovarian
# Assay: NCI-60 cell line screen, 48 h
row,Compound,TGI [µM]
1,O=[N+]([O-])c1ccc(-c2nn3c(C45CC6CC(CC(C6)C4)C5)nnc3s2)c(Cl)c1,> 100
2,CCCCCCCCCCCCCCCCNC(=O)/C(=C\c1ccc(Cl)c(Cl)c1)NC(=O)c1ccccc1,41.4
3,CC(Cn1c2c(c3cc(O)ccc31)CCc1ccc(O)cc1-2)N(C)C (stereo not drawn),29.1
4,O=C(Cn1c2ccc(Br)cc2c2nc3ccccc3nc21)Nc1ccccc1,56.2
5,COC(=O)/C=C/[C@@H]1[C@H](C)N1S(=O)(=O)c1ccc(C)cc1 (stereo partly drawn),> 100
6,Cc1nn(C(=O)c2ccncc2)c2c1C(c1ccccc1[N+](=O)[O-])SC(N)=N2 (stereo not drawn),> 10
7,CCOC(=O)C(=CNc1ccc(F)c(F)c1)C(=O)OCC,> 100
8,CN(N=O)c1nc2c(C(N)=O)ncn2s1,> 100
9,C1CCCN(NC2=NCCO2)CC1,> 100
